Test results taken from ChEMBL document CHEMBL4813957, “Antitubercular properties of thiazolidin-4-ones - A review” (Eur J Med Chem, 2021).
≈ marks a conversion by molar mass, not a printed value.

Key:
[1] = tested on: Mycobacterium tuberculosis; experiment: Antimycobacterial activity against Mycobacterium tuberculosis H37Rv assessed as growth inhibition at 50 ug/ml by Lowenstein-Jensen method relative to control; assay type: functional; settings: read-out: GI
[2] = tested on: Mycobacterium tuberculosis; experiment: Antimycobacterial activity against Mycobacterium tuberculosis H37Rv 27294 by microplate alamar blue assay; assay type: functional
[3] = Cytotoxicity against African green monkey Vero cells after 72 hrs by cell titer glo luminescent cell viability assay; assay type: cell-based; settings: chlorocebus sabaeus
[4] = tested on: Mycobacterium tuberculosis; experiment: Antimycobacterial activity against Mycobacterium tuberculosis H37Rv incubated for 7 days by resazurin dye based assay; assay type: functional; settings: 168 h, time 7 day
[5] = tested on: Mycobacterium tuberculosis; experiment: Antimycobacterial activity against Mycobacterium tuberculosis H37Rv ATCC 27294 incubated for 5 days by microplate alamar blue assay; assay type: functional; settings: H37Rv ATCC 27294, 120 h, time 5 day
[6] = tested on: Mycobacterium tuberculosis; experiment: Antimycobacterial activity against Mycobacterium tuberculosis H37Rv by filter paper disc diffusion method; assay type: functional
[7] = tested on: Mycobacterium tuberculosis; experiment: Antimycobacterial activity against Mycobacterium tuberculosis H37Rv ATCC27294 measured after 28 days by two-fold serial dilution method; assay type: functional; settings: H37Rv ATCC 27294, 672 h, time 28 day
[8] = tested on: Mycobacterium tuberculosis; experiment: Antimycobacterial activity against Mycobacterium tuberculosis H37Rv by Lowenstein-Jensen agar method; assay type: functional
[9] = tested on: Mycobacterium tuberculosis; experiment: Antimycobacterial activity against Mycobacterium tuberculosis H37Rv measured after 12 to 28 days by Lowenstein-Jensen method; assay type: functional; settings: time 12-28 day
[10] = tested on: Mycobacterium tuberculosis; experiment: Antimycobacterial activity against Mycobacterium tuberculosis H37Rv incubated for 4 weeks; assay type: functional; settings: 672 h
[11] = tested on: Mycobacterium tuberculosis; experiment: Antimycobacterial activity against Mycobacterium tuberculosis H37Rv assessed as growth inhibition at 12.5 ug/ml by BACTEC radiometric method relative to control; assay type: functional; settings: read-out: GI
[12] = tested on: Mycobacterium tuberculosis; experiment: Antimycobacterial activity against Mycobacterium tuberculosis H37Rv assessed as bacterial growth inhibition at 6.25 ug/ml by BACTEC MGIT method relative to control; assay type: functional
[13] = tested on: Mycobacterium tuberculosis; experiment: Antimycobacterial activity against Mycobacterium tuberculosis; assay type: functional
[14] = tested on: Mycobacterium tuberculosis; experiment: Antimycobacterial activity against Mycobacterium tuberculosis H37Rv by Lowenstein-Jensen method; assay type: functional
[15] = tested on: Mycobacterium tuberculosis; experiment: Antimycobacterial activity against Mycobacterium tuberculosis ATCC 27286 assessed as zone of inhibition at 20 ug/ml; assay type: functional; settings: read-out: IZ
[16] = target: T1, Enoyl-[acyl-carrier-protein] reductase [NADH] (Mycobacterium tuberculosis, UniProt P9WGR1); experiment: Inhibition of Mycobacterium tuberculosis InhA
T1 sequence (P9WGR1 whole entry): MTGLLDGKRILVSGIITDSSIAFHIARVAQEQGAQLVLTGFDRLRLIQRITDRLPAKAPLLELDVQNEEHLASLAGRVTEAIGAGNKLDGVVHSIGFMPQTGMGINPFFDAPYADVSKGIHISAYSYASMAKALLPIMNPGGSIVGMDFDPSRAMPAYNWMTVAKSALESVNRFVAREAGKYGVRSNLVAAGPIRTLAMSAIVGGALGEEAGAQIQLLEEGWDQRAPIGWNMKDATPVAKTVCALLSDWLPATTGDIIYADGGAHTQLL

[17] = tested on: Mycobacterium tuberculosis; experiment: Antimycobacterial activity against Mycobacterium tuberculosis H37Rv assessed as growth inhibition at 6.25 ug/ml by BACTEC radiometric method relative to control; assay type: functional; settings: read-out: GI
[18] = tested on: Mycobacterium tuberculosis; experiment: Antimycobacterial activity against Mycobacterium tuberculosis H37Rv ATCC 25618 incubated for 5 days by colorimetric microdilution assay; assay type: functional; settings: H37Rv ATCC 25618, 120 h, time 5 day
[19] = Selectivity ratio of IC50 for human WI-38 cells to MIC for Mycobacterium tuberculosis RCMB 010126; assay type: toxicity
[20] = tested on: Mycobacterium tuberculosis; experiment: Antimycobacterial activity against Mycobacterium tuberculosis RCMB 010126 measured after 7 days by microplate alamar blue assay; assay type: functional; settings: RCMB 010126, 168 h, time 7 day
WI-38 = experiment: Cytotoxicity against human WI-38 cells by MTT assay; assay type: cell-based
[21] = Selectivity ratio of CC50 for African green monkey Vero E6 cells to IC90 for Mycobacterium tuberculosis H37Rv 27294; assay type: toxicity, Vero C1008
[22] = Inhibition of Mycobacterium tuberculosis Pantothenate Synthetase expressed in Escherichia coli BL21(DE3) cells using beta-alanine as substrate
[23] = tested on: Mycobacterium tuberculosis; experiment: Antimycobacterial activity against Mycobacterium tuberculosis H37Rv incubated for 7 days by microplate alamar blue assay; assay type: functional; settings: 168 h, time 7 day
[24] = tested on: Mycobacterium tuberculosis; experiment: Antimycobacterial activity against Mycobacterium tuberculosis H37Rv assessed as inhibition of bacteria at 12.5 ug/ml by microplate alamar blue assay relative to control; assay type: functional
[25] = tested on: Mycobacterium tuberculosis; experiment: Antimycobacterial activity against Mycobacterium tuberculosis H37Rv assessed as bacterial inhibition at 25 ug/ml by microplate alamar blue assay relative to control; assay type: functional
[26] = tested on: Mycobacterium tuberculosis; experiment: Antimycobacterial activity against Mycobacterium tuberculosis H37Ra ATCC 25177 measured on 12th day by XTT reduction menadione assay; assay type: functional; settings: H37Ra ATCC 25177, 288 h, time 12 day
[27] = tested on: Mycobacterium tuberculosis; experiment: Antimycobacterial activity against Mycobacterium tuberculosis H37Rv ATCC 27294 by BACTEC radiometric method; assay type: functional

## O=C(NCCCN1c2ccccc2Sc2ccccc21)N1C(=O)/C(=C/c2cccc([N+](=O)[O-])c2)SC1c1cccc([N+](=O)[O-])c1 (stereo not given)
[1]
  inhibition of growth at 50 µg/mL: 83%

## CCN1C(=O)/C(=C/c2ccccc2F)S/C1=N/NC(=O)c1ccncc1
[2]
  IC90: 2.95 µg/mL (≈ 7.97 µM)
[3]
  CC50 at 72 h: 22.8 µg/mL (≈ 61.4 µM)

## CCN1C(=O)/C(=C/c2ccc(F)cc2)S/C1=N/NC(=O)c1ccncc1
[2]
  IC90: 2.95 µg/mL (≈ 7.97 µM)
[3]
  CC50 at 72 h: 9.69 µg/mL (≈ 26.2 µM)

## O=C1C(CN2CCOCC2)SC(c2ccc(Cl)cc2)N1c1ccc(Cl)cc1 (stereo not given)
[4]
  MIC: 25 µg/mL (≈ 59.1 µM)

## CO[C@H]1/C=C/O[C@@]2(C)Oc3c(C)c(O)c4c(O)c(c(/C=N/N5CCN(C)CC5)c(O)c4c3C2=O)NC(=O)/C(C)=C\C=C\[C@H](C)[C@H](O)[C@@H](C)[C@@H](O)[C@@H](C)[C@H](OC(C)=O)[C@@H]1C [RIFAMPIN]
[5]
  MIC: 1 µg/mL (≈ 1.22 µM)
[6]
  MIC: 2.5 µg/mL (≈ 3.04 µM)
[7]
  MIC: 0.24 µM (≈ 0.198 µg/mL)
[8]
  MIC: 40 µg/mL (≈ 48.6 µM)
[9]
  MIC: 40 µg/mL (≈ 48.6 µM)

## COc1ccc(/C=C2\SC(=O)N(CNNC(=O)c3ccncc3)C2=O)cc1
[10]
  MIC: 50 µg/mL (≈ 130 µM)

## Cc1ccc(N2C(=O)CSC23C(=O)Nc2ccc(C)cc23)cc1 (stereo not given)
[11]
  inhibition of growth at 12.5 µg/mL: 90%

## Cc1nc2ccccc2c(=O)n1CCNC1=NC(=O)/C(=C/c2cccc(Cl)c2)S1
[12]
  inhibition at 6.25 µg/mL: 99%

## Cc1nc(/N=C2\C(=O)Nc3ccccc32)sc1C(=O)NN1C(=O)CSC1c1ccc(F)cc1 (stereo not given)
[13]
  MIC: 0.78 µM (≈ 0.376 µg/mL)

## COc1cc(C2SCC(=O)N2NC2=Nc3ccccc3Sc3ccccc32)cc(OC)c1OC (stereo not given)
[14]
  MIC: 125 µg/mL (≈ 253 µM)

## O=C(NN1C(=O)CSC1c1c[nH]c2ccccc12)c1ccncc1 (stereo not given)
[15]
  zone of inhibition at 20 µg/mL: 35 mm
[16]
  Ki: 641 nM

## COc1ccc(C(=O)Nc2ccc(C(=O)NN3C(=O)CSC3c3ccc([N+](=O)[O-])o3)cc2)cc1 (stereo not given)
[17]
  inhibition of growth at 6.25 µg/mL: 98%

## Cc1cc(C)c2c(c1)C1(SCC(=O)N1c1ccccc1C(=O)O)C(=O)N2 (stereo not given)
[11]
  inhibition of growth at 12.5 µg/mL: 90%

## C/C(=N/N=C1\NC(=O)CS1)c1cc2ccccc2oc1=O
[18]
  MIC: 83 µg/mL (≈ 275 µM)

## O=C1CSC(c2ccccc2)N1C(=O)NCCCN1c2ccccc2Sc2ccccc21 (stereo not given)
[1]
  inhibition of growth at 50 µg/mL: 75%

## CCOC(=O)c1sc(/N=C2\NC(=O)/C(=C/c3cccnc3)S2)nc1C
[19]
  selectivity ratio: 52
[20]
  MIC: 1.56 µg/mL (≈ 4.17 µM)
WI-38
  IC50: 81.3 µg/mL (≈ 217 µM)

## CCN1C(=O)/C(=C/c2ccc(OC)cc2)S/C1=N/NC(=O)c1ccncc1
[2]
  IC90: 2.95 µg/mL (≈ 7.72 µM)
[3]
  CC50 at 72 h: 36.9 µg/mL (≈ 96.4 µM)
[21]
  selectivity ratio: 18.1

## CCc1ccc(CCOc2ccc(/C=C3\SC(=S)N(CC(=O)Nc4nc5ccc(C)cc5s4)C3=O)cc2)nc1
[9]
  MIC: 25 µg/mL (≈ 43.5 µM)

## O=C(CCN1C(=O)/C(=C/c2ccc([N+](=O)[O-])cc2)SC1=S)NNC(=O)c1ccccc1
[22]
  IC50: 370 nM
[23]
  MIC: 1.71 µM (≈ 0.781 µg/mL)

## Cc1ccc(/C=C2\SC(NCCn3c(C)nc4ccccc4c3=O)=NC2=O)cc1
[12]
  inhibition at 6.25 µg/mL: 99%

## CCCCCCCCCCCCN1C(=O)C(CC(=O)O)SC12CCN(C(=O)C(N)Cc1ccccc1)CC2 (stereo not given)
[24]
  inhibition at 12.5 µg/mL: 94%
[25]
  inhibition at 25 µg/mL: 97%

## O=C1CSC(c2ccc(OCc3cc4ccccc4n4nnnc34)cc2)N1c1ccc([N+](=O)[O-])cc1 (stereo not given)
[26]
  MIC: 20.3 µg/mL (≈ 40.8 µM)

## COc1cc(/C=C2\SC(=S)N(CCC(=O)NNC(=O)c3ccncc3)C2=O)cc(OC)c1OC
[22]
  IC50: 350 nM
[23]
  MIC: 1.55 µM (≈ 0.779 µg/mL)

## O=C1/C(=C/c2ccc(F)cc2)SC(=S)N1Cc1nnc(-c2cccnc2SCc2ccccc2)o1
[1]
  inhibition of growth at 50 µg/mL: 99%

## N#Cc1ccc(C2SCC(=O)N2NC(=O)c2[nH]c3ccc(F)cc3c2-c2ccccc2)cc1 (stereo not given)
[27]
  MIC: 6.25 µg/mL (≈ 13.7 µM)

## Cc1nc(/N=C2\C(=O)Nc3ccccc32)sc1C(=O)NN1C(=O)CSC1c1ccccc1F (stereo not given)
[13]
  MIC: 0.78 µM (≈ 0.376 µg/mL)
